Test results: patent US11026426B2, “Oxadiazole and phenol derivatives as antibacterial and/or herbicidal agents” (NORTHERN ILLINOIS RESEARCH FOUNDATION, priority 2017, dated 2021)

Tests used:
[1] = test system: Corynebacterium pseudodiphtheriae; assay: Antibacterial preliminary screening CP; type: cell-based; conditions: score 0-3;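 further: 0 is no inhibition and 3 matches the commercial antibiotic control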
Mycobacterium smegmatis = assay: Antibacterial preliminary screening MS; type: cell-based; conditions: for MS score: score 0-3
LeIspE = LeIspE (Solanum lycopersicum, UniProt P93841); assay: University of Hamburg photometric enzymatic inhibition assay LeIspE; type: biochemical, Lycopersicon esculentum; conditions: read-out: LeIspE IC50
Sequence of LeIspE (P93841 89-401): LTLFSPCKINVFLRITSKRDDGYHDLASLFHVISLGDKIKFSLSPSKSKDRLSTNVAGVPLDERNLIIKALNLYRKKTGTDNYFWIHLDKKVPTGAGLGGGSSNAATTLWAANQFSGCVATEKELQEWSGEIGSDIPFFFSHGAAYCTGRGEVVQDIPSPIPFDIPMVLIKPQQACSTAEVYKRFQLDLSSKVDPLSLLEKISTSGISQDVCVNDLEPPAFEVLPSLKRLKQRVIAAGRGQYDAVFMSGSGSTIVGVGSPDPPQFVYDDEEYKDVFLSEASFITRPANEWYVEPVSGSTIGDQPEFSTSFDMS
Method in brief: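 Photometric coupled assay with pyruvate kinase/lactate dehydrogenase following NADH (460 μM). Mix: 100 mM Tris-HCl pH 8.0, 10 mM MgCl2, 1 mM DTT, 2.5 mM phosphoenolpyruvate, 2 mM ATP, 1 mM 4-diphosphocytidyl-2-C-methylerythritol, 1.1% DMSO, 2.4 mU IspE; incubated at 27° C.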

Bacillus cereus = assay: Antibacterial preliminary screening BC; type: cell-based; conditions: score 0-3; further: key: 0 represents no inhibition; 3 is comparable to commercial antibiotic control
Pseudomonas aeruginosa = assay: Antibacterial preliminary screening PA; type: cell-based; conditions: for PA score: score 0-3
lettuce seeds = assay: Lettuce leaf assay; type: in vivo; parameters: key: 0 (no effect); 5(complete inhibition or bleaching); conditions: ranking 0-5
Method in brief: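 Qualitative assay: compounds in volatile organic solvent applied to filter paper in a petri dish, solvent evaporated, lettuce seeds and 5 mL water added to give test concentrations. Germination, root development and leaf bleaching scored days 3 and 4, ranked 0 (no effect) to 5 (complete inhibition or bleaching).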

AtIspF = AtIspF (Arabidopsis thaliana, UniProt Q9CAK8); assay: University of Hamburg photometric enzymatic inhibition assay AtIspF; type: biochemical; conditions: read-out: AtIspF IC50
Sequence of AtIspF (Q9CAK8 53-231): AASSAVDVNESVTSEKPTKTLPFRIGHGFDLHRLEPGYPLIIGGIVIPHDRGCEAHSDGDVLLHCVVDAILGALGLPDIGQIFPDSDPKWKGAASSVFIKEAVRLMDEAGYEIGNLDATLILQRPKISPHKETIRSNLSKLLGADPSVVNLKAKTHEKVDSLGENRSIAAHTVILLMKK
Method in brief: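 Coupled photometric assay (CMP kinase/pyruvate kinase/lactate dehydrogenase, NADH consumption) with 2.4 mU AtIspF and 1 mM 4-diphosphocytidyl-2C-methylerythritol 2-phosphate, 2 mM ATP, in 100 mM Tris-HCl pH 8.0, 10 mM MgCl2, 1.1% DMSO. Monitored at 27 °C.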

Klebsiella pneumonia = assay: Antibacterial preliminary screening KP; type: cell-based; conditions: score 0-3; further: key: 0 represents no inhibition; 3 is comparable to commercial antibiotic control
[2] = target: T1, Mycobacterium tuberculosis IspD (MtIspD) (Mycobacterium tuberculosis, UniProt P9WKG9); assay: Thermal shift assay against MtIspD; type: binding
T1 sequence (P9WKG9 1-231): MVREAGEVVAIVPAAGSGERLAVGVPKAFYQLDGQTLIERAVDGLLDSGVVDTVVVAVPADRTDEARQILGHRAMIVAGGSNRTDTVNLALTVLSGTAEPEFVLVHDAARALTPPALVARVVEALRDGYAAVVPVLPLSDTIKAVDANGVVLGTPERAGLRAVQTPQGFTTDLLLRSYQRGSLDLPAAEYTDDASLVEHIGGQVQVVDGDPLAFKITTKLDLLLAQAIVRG

Escherichia coli = assay: Antibacterial preliminary screening EC; type: cell-based; conditions: score 0-3; further: key: 0 represents no inhibition; 3 is comparable to commercial antibiotic control
[3] = test system: Burkholderia thailandensis; type: cell-based; conditions: preliminary screening; for BT score: score 0-3
[4] = target: Lycopersicon esculentum IspE (LeIspE) (Solanum lycopersicum, UniProt P93841); assay: Thermal shift assay against LeIspE; type: binding
Sequence of Lycopersicon esculentum IspE (LeIspE) (P93841 89-401): as the sequence (P93841 89-401) above

AtIspD = AtIspD (Arabidopsis thaliana, UniProt P69834); assay: University of Hamburg photometric enzymatic inhibition assay AtIspD; type: biochemical; conditions: read-out: AtIspD IC50
Sequence of AtIspD (P69834 62-302): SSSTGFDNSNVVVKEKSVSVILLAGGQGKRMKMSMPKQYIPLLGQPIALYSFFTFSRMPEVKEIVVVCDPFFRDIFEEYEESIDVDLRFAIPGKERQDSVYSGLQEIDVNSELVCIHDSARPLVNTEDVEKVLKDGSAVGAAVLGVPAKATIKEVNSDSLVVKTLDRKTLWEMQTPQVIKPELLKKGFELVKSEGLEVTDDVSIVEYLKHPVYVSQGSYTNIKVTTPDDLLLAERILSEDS
Method in brief: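 Coupled photometric assay: 2.4 mU AtIspD with 1 mM (2R,3S)-2,3-dihydroxy-4-oxopentyl phosphate, 2.1 mM CTP, excess IspE (0.4 U), ATP, pyruvate kinase/lactate dehydrogenase and 460 μM NADH. Run in 100 mM Tris-HCl pH 8.0, 10 mM MgCl2, 1 mM DTT, 1.1% DMSO at 27 °C, monitored photometrically.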

Corynebacterium xerosis = assay: Antibacterial preliminary screening CX; type: cell-based; conditions: score 0-3; further: key: 0 represents no inhibition; 3 is comparable to commercial antibiotic control
Micrococcus luteus = assay: Antibacterial preliminary screening ML; type: cell-based; conditions: score 0-3

| Structure (SMILES) | CP score [1] | MS score (Mycobacterium smegmatis) | IC50 (LeIspE) | BC score (Bacillus cereus) | PA score (Pseudomonas aeruginosa) | Bleaching (lettuce seeds; 0.15 mM) | Germination (lettuce seeds; 0.15 mM) | Root Dev. (lettuce seeds; 0.15 mM) | IC50 (AtIspF) | KP score (Klebsiella pneumonia) | MtIspD melting point change [2] | MtIspD melting temp [2] | melting point | EC score (Escherichia coli) | BT score [3] | LeIspE melting point change [4] | LeIspE melting temp [4] | IC50 (AtIspD) | CX score (Corynebacterium xerosis) | ML score (Micrococcus luteus) | also measured |
| --- | --- | --- | --- | --- | --- | --- | --- | --- | --- | --- | --- | --- | --- | --- | --- | --- | --- | --- | --- | --- | --- |
| FC(F)(F)c1ccc(-c2nnc(-c3nc4ccccc4s3)o2)cc1 [HGN-337, 2-(benzo[d]thiazol-2-yl)-5-(4-(trifluoromethyl)phenyl)-1,3,4-oxadiazole] | 0 | 0 | > 500 µM | 0 | 0 | 0 | 0 | 0 | > 500 µM | 0 | 0.8 °C | 48.8 °C | 145 to 148 °C | 0 | 0 | −1.75 °C | 47.75 °C | > 500 µM | 0 | 0 | Bleaching (lettuce seeds; 0.3 mM): 0; Germination (lettuce seeds; 0.3 mM): 0; Root Dev. (lettuce seeds; 0.3 mM): 0 |
| c1ccc2[nH]c(-c3nnc(C4CCCCC4)o3)cc2c1 [HGN-254, 2-cyclohexyl-5-(1H-indol-2-yl)-1,3,4-oxadiazole] | 0 | 0 | > 1000 µM | 0 | 0 | 0 | 0 | 0 | > 1000 µM | 0 | 0.5 °C | 48.5 °C | 187 to 193 °C | 0 | 0 | −2.00 °C | 47.50 °C | 322 µM | 0 | 0 | Bleaching (lettuce seeds; 0.3 mM): 0; Germination (lettuce seeds; 0.3 mM): 0; Root Dev. (lettuce seeds; 0.3 mM): 0 |
| FC(F)(F)c1ccc(-c2nnc(-c3nc4ccccc4[nH]3)o2)cc1 [HGN-422, 2-(1H-benzo[d]imidazol-2-yl)-5-(4-(trifluoromethyl)phenyl)-1,3,4-oxadiazole] | 0 | 1 | 267 µM | 0 | 0 | 0 | 0 | 0 | > 500 µM | 0 | 1.0 °C | 49.0 °C | 275 to 280 °C | 0 | 1 | −3.25 °C | 46.25 °C | 251 µM | 0 | 0 | antibacterial activity against Mycobacterium smegmatis (Mycobacterium smegmatis): slight antibacterial activity; Bleaching (lettuce seeds; 0.3 mM): 0; Germination (lettuce seeds; 0.3 mM): 0; Root Dev. (lettuce seeds; 0.3 mM): 0; antibacterial activity against Burkholderia thailandensis [3]: slight antibacterial activity |
| CCc1nnc(-c2cc3ccccc3[nH]2)o1 [HGN-250, 2-ethyl-5-(1H-indol-2-yl)-1,3,4-oxadiazole] | 0 | 0 | > 1000 µM | 0 | 0 | – | – | – | > 1000 µM | 0 | 0.8 °C | 48.8 °C | 138 to 143 °C | 0 | 0 | −2.75 °C | 46.75 °C | > 1000 µM | 0 | 0 | Bleaching (lettuce seeds; 0.5 mM): 0; Germination (lettuce seeds; 0.5 mM): 1; Root Dev. (lettuce seeds; 0.5 mM): 0; Bleaching (lettuce seeds; 1.0 mM): 0; Germination (lettuce seeds; 1.0 mM): 3; Root Dev. (lettuce seeds; 1.0 mM): 0 |
| c1ccc(CCc2nnc(-c3cc4ccccc4[nH]3)o2)cc1 [HGN-215, 2-(1H-indol-2-yl)-5-phenethyl-1,3,4-oxadiazole] | 0 | 0 | 430 ± 48 µM | 0 | 0 | 0 | 0 | 0 | > 1000 µM | 0 | 0.8 °C | 48.8 °C | 161 to 164 °C | 0 | 0 | −2.00 °C | 47.50 °C | > 1000 µM | 0 | 0 | Bleaching (lettuce seeds; 0.3 mM): 0; Germination (lettuce seeds; 0.3 mM): 0; Root Dev. (lettuce seeds; 0.3 mM): 0 |
| CC(C)c1nnc(-c2cc3ccccc3[nH]2)o1 [HGN-240, 2-(1H-indol-2-yl)-5-isopropyl-1,3,4-oxadiazole] | 0 | 0 | > 1000 µM | 0 | 0 | – | – | – | > 1000 µM | 0 | 0.8 °C | 48.8 °C | 164 to 170 °C | 0 | 0 | −1.50 °C | 48.00 °C | > 1000 µM | 0 | 0 | Bleaching (lettuce seeds; 0.5 mM): 0; Germination (lettuce seeds; 0.5 mM): 1; Root Dev. (lettuce seeds; 0.5 mM): 0; Bleaching (lettuce seeds; 1.0 mM): 0; Germination (lettuce seeds; 1.0 mM): 2; Root Dev. (lettuce seeds; 1.0 mM): 0 |
| Clc1cccc(-c2nnc(-c3cc4ccccc4[nH]3)o2)c1 [HGN-241, 2-(3-chlorophenyl)-5-(1H-indol-2-yl)-1,3,4-oxadiazole] | 0 | 0 | 149 ± 41 µM | 0 | 0 | – | – | – | > 1000 µM | 0 | 0.5 °C | 48.5 °C | 202 to 207 °C | 0 | 0 | −1.75 °C | 47.75 °C | > 1000 µM | 0 | 0 | Bleaching (lettuce seeds; 0.2 mM): 0; Germination (lettuce seeds; 0.2 mM): 1; Root Dev. (lettuce seeds; 0.2 mM): 0 |
| Oc1c(Br)cc(Br)cc1-c1cc2ccccc2[nH]1 [HGN-340, 2,4-dibromo-6-(1H-indol-2-yl)phenol] | 0 | 0 | > 500 µM | 2 | 0 | 0 | 0 | 0 | 470 ± 116 µM | 0 | 1.3 °C | 49.3 °C | 104 to 110 °C | 0 | 0 | 0.50 °C | 50.00 °C | 50 µM | 0 | 0 | effectiveness against Pseudomonas aeruginosa (Pseudomonas aeruginosa): moderately effective; Bleaching (lettuce seeds; 0.3 mM): 0; Germination (lettuce seeds; 0.3 mM): 0; Root Dev. (lettuce seeds; 0.3 mM): 0 |
| C(=C\c1nnc(-c2nc3ccccc3s2)o1)/c1ccccc1 [HGN-335, (E)-2-(benzo[d]thiazol-2-yl)-5-styryl-1,3,4-oxadiazole] | 0 | 0 | > 500 µM | 0 | 1 | – | – | – | > 500 µM | 0 | 0.5 °C | 48.5 °C | 202 to 204 °C | 0 | 0 | −1.50 °C | 48.00 °C | > 500 µM | 0 | 0 | effectiveness against Pseudomonas aeruginosa (Pseudomonas aeruginosa): slightly effective; Bleaching (lettuce seeds; 0.1 mM): 0; Germination (lettuce seeds; 0.1 mM): 0; Root Dev. (lettuce seeds; 0.1 mM): 0; Bleaching (lettuce seeds; 0.2 mM): 0; Germination (lettuce seeds; 0.2 mM): 0; Root Dev. (lettuce seeds; 0.2 mM): 0 |
